# Measured values as given in patent publication US20100003209A1, “Odor Blocking Water-Absorbent Compositions” (BASF SE, priority 2006, published 2010).
# Where two headings read alike, the source gives them in different places.
# Assays:
# urease (from jack beans) = urease (from jack beans) (Canavalia ensiformis, UniProt P07374); details: 23° C.
# Procedure: The measurements should be carried out, unless otherwise stated, at an ambient temperature of 23±2° C. and a relative humidity of 50±10%. The water-absorbing polymers are thoroughly commixed prior to the measurement.
# To determine the odor-preventing effect, 2 g of each of the compositions produced above were placed in a 100 ml Erlenmeyer flask and admixed with a freshly prepared solution of 30 mg of urease (from jack beans; lyophilized 5 U/mg for urea assay in serum; Merck KGaA, Germany) and 50 ml of 0.9% sodium chloride solution, the sodium chloride solution containing 8.56 g/l of urea, and sealed with a stopper having an internal diffusion tubelet (Dräger® Röhrchen; ammonia 20/a-D, 20 to 1500 ppm*h). The measurement was discontinued after 6 hours. The test was carried out at 23° C.
# [1] = Centrifuge Retention Capacity (CRC), EDANA test method No. 441.2-02; format: physicochemical
# [2] = 0.0500% by weight in composition with polymer from Example 1 (55 mol % neutralized)
# [3] = 0.2000% by weight in composition with polymer from Example 1 (55 mol % neutralized)
# Chain of urease (from jack beans) (P07374 whole entry, looked up): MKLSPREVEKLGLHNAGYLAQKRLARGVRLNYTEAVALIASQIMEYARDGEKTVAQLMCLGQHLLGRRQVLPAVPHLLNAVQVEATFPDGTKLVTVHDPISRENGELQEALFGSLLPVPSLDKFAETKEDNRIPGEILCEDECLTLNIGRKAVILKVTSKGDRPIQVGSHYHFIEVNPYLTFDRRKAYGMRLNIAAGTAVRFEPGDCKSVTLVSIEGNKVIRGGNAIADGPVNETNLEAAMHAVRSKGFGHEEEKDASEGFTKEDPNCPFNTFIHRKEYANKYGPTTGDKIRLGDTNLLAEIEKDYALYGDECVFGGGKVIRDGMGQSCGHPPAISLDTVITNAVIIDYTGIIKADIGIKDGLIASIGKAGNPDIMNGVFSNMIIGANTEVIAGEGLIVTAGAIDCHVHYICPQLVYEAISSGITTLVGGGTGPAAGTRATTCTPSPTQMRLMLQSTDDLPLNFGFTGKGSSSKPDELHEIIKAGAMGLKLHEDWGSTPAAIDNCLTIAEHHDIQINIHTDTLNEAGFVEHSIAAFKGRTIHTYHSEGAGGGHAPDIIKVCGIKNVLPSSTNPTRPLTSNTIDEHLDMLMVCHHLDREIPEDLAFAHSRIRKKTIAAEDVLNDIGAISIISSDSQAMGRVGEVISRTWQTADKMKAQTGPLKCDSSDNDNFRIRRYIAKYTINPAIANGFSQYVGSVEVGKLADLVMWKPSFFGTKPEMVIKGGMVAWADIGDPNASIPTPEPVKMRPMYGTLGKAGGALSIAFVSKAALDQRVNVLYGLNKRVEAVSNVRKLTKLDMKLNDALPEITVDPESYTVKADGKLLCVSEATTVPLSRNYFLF
structure (smiles),measurement,setting,value
Oc1ccc(O)cc1 [hydroquinone],NH3 after 6 hours,"urease (from jack beans); 0.0025% by weight in composition, degree of neutralization 55 mol %",91 ppm
same,NH3 after 6 hours,"urease (from jack beans); 0.0025% by weight in composition, degree of neutralization 60 mol %",182 ppm
same,NH3 after 6 hours,"urease (from jack beans); 0.0025% by weight in composition, degree of neutralization 72 mol %",800 ppm
same,NH3 after 6 hours,"urease (from jack beans); 0.0050% by weight in composition, degree of neutralization 55 mol %",58 ppm
same,NH3 after 6 hours,"urease (from jack beans); 0.0050% by weight in composition, degree of neutralization 60 mol %",78 ppm
same,NH3 after 6 hours,"urease (from jack beans); 0.0050% by weight in composition, degree of neutralization 72 mol %",381 ppm
same,NH3 after 6 hours,"urease (from jack beans); 0.0100% by weight in composition, degree of neutralization 55 mol %",29 ppm
same,NH3 after 6 hours,"urease (from jack beans); 0.0100% by weight in composition, degree of neutralization 60 mol %",45 ppm
same,NH3 after 6 hours,"urease (from jack beans); 0.0100% by weight in composition, degree of neutralization 72 mol %",214 ppm
same,NH3 after 6 hours,"urease (from jack beans); 0.0200% by weight in composition, degree of neutralization 55 mol %",0 ppm
same,NH3 after 6 hours,"urease (from jack beans); 0.0200% by weight in composition, degree of neutralization 60 mol %",10 ppm
same,NH3 after 6 hours,"urease (from jack beans); 0.0200% by weight in composition, degree of neutralization 72 mol %",63 ppm
same,NH3 after 6 hours,"urease (from jack beans); 0.0500% by weight in composition, degree of neutralization 55 mol %",0 ppm
same,NH3 after 6 hours,"urease (from jack beans); 0.0500% by weight in composition, degree of neutralization 60 mol %",0 ppm
same,NH3 after 6 hours,"urease (from jack beans); 0.0500% by weight in composition, degree of neutralization 72 mol %",15 ppm
same,NH3 after 6 hours,"urease (from jack beans); 0.2000% by weight in composition, degree of neutralization 55 mol %",0 ppm
same,NH3 after 6 hours,"urease (from jack beans); 0.2000% by weight in composition, degree of neutralization 60 mol %",0 ppm
same,NH3 after 6 hours,"urease (from jack beans); 0.2000% by weight in composition, degree of neutralization 72 mol %",0 ppm
same,NH3 after 6 hours,"urease (from jack beans); 1.0000% by weight in composition, degree of neutralization 55 mol %",0 ppm
same,NH3 after 6 hours,"urease (from jack beans); 1.0000% by weight in composition, degree of neutralization 60 mol %",0 ppm
same,NH3 after 6 hours,"urease (from jack beans); 1.0000% by weight in composition, degree of neutralization 72 mol %",0 ppm
same,CRC,[1]; 0.0050% by weight in composition with polymer from Example 1 (55 mol % neutralized),28.5 g/g
same,CRC,[1]; [2],28.7 g/g
same,CRC,[1]; [3],25.3 g/g
same,CRC,[1]; 1.0000% by weight in composition with polymer from Example 1 (55 mol % neutralized),23.4 g/g
[F-].[Na+] [sodium fluoride],CRC,[1]; [2],29.1 g/g
same,CRC,[1]; 0.0900% by weight in composition with polymer from Example 1 (55 mol % neutralized),28.5 g/g
same,CRC,[1]; [3],24.1 g/g
